Measured values published in US20060276393A1, “Novel compositions for preventing and treating neurodegenerative and blood coagulation disorders” (Sirtris Pharmaceuticals, Inc., priority 2005, published 2006).

What was measured:
D. melanogaster = D. melanogaster lifespan; format: in vivo
Description: Females (a) and males (b) with loss-of-function genotype dSir2^4.5/dSir2^5.26. Females (c) and males (d) with strong hypomorphic genotype dSir2^17/dSir2^KG00871.
Survival assays were conducted independently with adult D. melanogaster in two laboratories. In the first laboratory, all trials used an yw marked wild-type strain. Larvae were reared on standard cornmeal-sugar-yeast (CSY) agar diet (cornmeal 5%, sucrose 10.5%, SAF yeast 2%, and agar 0.7%). Newly eclosed adults were placed in 1 L demography cages with approximately 75 males and 75 females. Three to four replicate 1 L demography cages were used for each treatment group in each trial. Every two days, dead flies were removed and scored, and food vials were replenished. Food vials contained cornmeal-sugar-yeast diet with SAF yeast as either 2% or 3% by weight. Test compounds in 100 μl of EtOH (or blank EtOH in controls) were mixed into melted aliquots of the adult food media to make a final concentration of 0, 10 or 100 μM. Fresh stock solutions and adult media were prepared weekly. In the second laboratory, lifespan trials were conducted with the wild type strain Canton-S, dSir2^4.5 and dSir2^5.26 (S. Smolik, University of Oregon), dSir2^17 (S. Astrom, Stockholm University, Sweden), and dSir2^KG00871 (Drosophila Stock Center, Bloomington, Ind.). Larvae for all tests were reared on standard cornmeal-sugar-yeast diet. Newly eclosed adults were incubated in plastic shell vials containing 5 ml of 15% sugar-yeast diet (15% SY) or 5% sugar-yeast (5% SY) diet (15% SY: 15% yeast, 15% sucrose, 2% agar; 5% SY: 5% yeast, 5% sucrose, 2% agar as per Ref. ^20). In all trials, ˜20 males with ˜20 females were placed into each of 10 vials/treatment group. Every two days, flies were passed into new vials and dead flies were counted. […] Final compound concentrations were 0, 10, 100 or 200 μM. Fresh stock solution and adult media was prepared weekly.

[1] = test system: thoracic spinal cord of EAE SJL/J mice; assay: EAE spinal cord white matter damage; format: in vivo, mouse
From the text: At day 40 post-immunization, mice from each group are sacrificed with an overdose of ketamine/xylazine. Spinal cords are dissected, fixed in 10% buffered formalin, and embedded in paraffin. Five micron thick sections are stained with Hematoxylin and Eosin (H&E) and Luxol Fast Blue (LFB) to assess myelin loss. Bielshowesky's silver impregnation is used to evaluate axonal integrity. To asses the amount of axonal loss, paraffin sections are exposed to monoclonal antibodies against mouse non-phosphorylated neurofilament H (Clone SMI-32, Stemberger Monoclonals, Baltimore, USA) and monoclonal antibodies against APP (Clone 22C11, Chemicon). SMI-32 is detected with a Cy3-labeled antibody and visualized by fluorescence microscopy. Anti-APP antibodies are detected by incubation with ColonoPAP, and APP-positive axons are visualized with 3,3′-diaminobenzidine (DAB).
The percentage of the spinal cord showing damage was determined in the cervical, thoracic and lumbar cord. At each level, regions in the 1) dorsal columns and 2) the lateral and ventral white matter tracts containing damaged fibers was circumscribed on photomontages (final magnification ×100) of the entire spinal cord. Damaged areas in each of the two regions were measured using a SummaSketch III (Summagraphics, Seymour, Conn.) digitizing tablet and BIOQUANT Classic 95 software (R&M Biometrics, Nashville, Tenn.). Measurements were also be made of the total area (damaged and nondamaged) of the 1) dorsal columns and 2) the lateral and ventral columns. For each section (one section per animal), the cumulative percent lesion areas were calculated for each region (dorsal column, lateral and ventral columns).

[2] = molecular target: T1, SIRT1 deacetylase (BIOMOL) (Homo sapiens, UniProt Q96EB6); assay: High-throughput SIRT1 screening protocol (ICCB library); format: biochemical; conditions: positive controls; 200 μM NAD+, 5 μM Fluor de Lys-SIRT1; resveratrol 50 μM
T1 construct: purchased BIOMOL
T1 sequence (Q96EB6 1-747): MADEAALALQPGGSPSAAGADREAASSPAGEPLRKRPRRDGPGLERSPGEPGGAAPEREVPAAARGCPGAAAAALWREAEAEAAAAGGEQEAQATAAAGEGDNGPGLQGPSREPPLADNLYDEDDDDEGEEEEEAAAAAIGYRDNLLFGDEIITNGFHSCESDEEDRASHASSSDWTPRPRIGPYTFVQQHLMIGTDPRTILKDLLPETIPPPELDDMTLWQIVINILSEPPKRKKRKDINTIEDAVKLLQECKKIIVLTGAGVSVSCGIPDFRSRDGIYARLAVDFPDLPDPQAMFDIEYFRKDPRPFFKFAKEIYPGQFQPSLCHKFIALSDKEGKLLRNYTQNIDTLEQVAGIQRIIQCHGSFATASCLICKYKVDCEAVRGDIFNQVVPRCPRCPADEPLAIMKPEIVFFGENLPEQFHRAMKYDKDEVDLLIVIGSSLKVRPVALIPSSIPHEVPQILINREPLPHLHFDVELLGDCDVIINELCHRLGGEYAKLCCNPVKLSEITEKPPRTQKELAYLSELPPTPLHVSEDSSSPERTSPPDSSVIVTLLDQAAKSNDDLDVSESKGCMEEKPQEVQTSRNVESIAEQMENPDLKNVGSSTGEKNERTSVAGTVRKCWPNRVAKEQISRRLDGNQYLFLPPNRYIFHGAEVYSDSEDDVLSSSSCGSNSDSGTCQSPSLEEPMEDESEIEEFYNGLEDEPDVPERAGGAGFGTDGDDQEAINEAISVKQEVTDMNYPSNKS
Description: The reaction mixture contains (final): 0.5 units/reaction SIRT1 deacetylase (BIOMOL); 200 μM NAD^+; 5 μM Fluor de Lys-SIRT1 substrate (BIOMOL); buffer (25 mM Tris/Cl, pH 8.0, 137 mM NaCl, 2.7 mM KCl, 1 mM MgCl2, and 1 mg/ml BSA). In addition, a reaction mixture containing no enzyme was made so that each well receiving compound has a corresponding “no enzyme control” well. Reactions were performed in black 384 well plates (NUNC) in a final volume of 25 μl/well.
The reactions were started by combining enzyme and substrate in a reaction mixture immediately prior to aliquoting in plates (or substrate only for “no enzyme control” plates). Mixture were aliquoted to plates using Biotek μfill (Biotek Instruments). Control mixtures were manually added to designated wells. A library compound was added at a desired concentration by pin transfer to both “with enzyme” and “no enzyme” plates. Compounds were added in at least triplicate (with enzyme reaction in duplicate and no enzyme controls) at a final concentration of roughly 50 μM. The plates were incubated at 37° C for 30-60 minutes. Then 25 μl of 1× Developer II (BIOMOL) plus 2 mM nicotinamide were added to all wells to stop the reactions. The reactions were left for at least 30 minutes at 37° C. for the signal to develop. The plates were read in a microplate-reading fluorometer capable of excitation at a wavelength in the range of 350-380 nm and detection of emitted light in the range of 440-460 nm. A read time of 0.1 sec per well was used.

Oc1ccc(/C=C/c2cc(O)cc(O)c2)cc1 [Resveratrol, 3,5,4′-Trihydroxy-trans-stilbene]
increased lifespan (maximum) (D. melanogaster; Canton-S/dSir2^KG0087): up to 17%
lifespan in flies lacking or severely decreased in dSir2 (D. melanogaster; dSir2^4.5/dSir2^5.26 or dSir2^17/dSir2^KG00871, 100 μM): failed to extend lifespan
longevity in flies homozygous for a hypomorphic dSir2 allele (D. melanogaster; dSir2^KG0087/dSir2^KG0087): a small but statistically significant amount
longevity on restricted diet (D. melanogaster; restricted diet): neither resveratrol nor fisetin further increased longevity
lifespan extended (maximum) (D. melanogaster; wild type Canton-S and yw, males and females, normal diet): up to 29%
degree of damage in dorsal, lateral and ventral white matter ([1]; resveratrol 200 mg/kg): slightly increased, albeit not significantly
reduction of degree of damage in dorsal, lateral and ventral white matter ([1]; resveratrol 400 mg/kg, significant): approximately 40%
activated SIRT1 [2]: 2.2 fold
